Values quoted from earlier work, collected in patent US20220378710A1, “Therapeutic Gas Microfoam for Skin Recovery” (Truly Oxygen, Inc., priority 2018, published 2022).

Details: topical co-administration of lipids, mammals

## CCCCCc1cc(O)c2c(c1)OC(C)(C)[C@@H]1CCC(C)=C[C@@H]21 [THC, Δ^9-tetrahydrocannabinol]
  increase in absorption and/or bioavailability: more than 2.5 fold

## C=C(C)[C@@H]1CCC(C)=C[C@H]1c1c(O)cc(CCCCC)cc1O [CBD, cannabidiol]
  increase in absorption and/or bioavailability: ~3 fold
